Legend:
Adenosine receptor A3 = target: T1, Adenosine receptor A3 (Homo sapiens, UniProt P0DMS8)
T1 sequence (P0DMS8 whole entry): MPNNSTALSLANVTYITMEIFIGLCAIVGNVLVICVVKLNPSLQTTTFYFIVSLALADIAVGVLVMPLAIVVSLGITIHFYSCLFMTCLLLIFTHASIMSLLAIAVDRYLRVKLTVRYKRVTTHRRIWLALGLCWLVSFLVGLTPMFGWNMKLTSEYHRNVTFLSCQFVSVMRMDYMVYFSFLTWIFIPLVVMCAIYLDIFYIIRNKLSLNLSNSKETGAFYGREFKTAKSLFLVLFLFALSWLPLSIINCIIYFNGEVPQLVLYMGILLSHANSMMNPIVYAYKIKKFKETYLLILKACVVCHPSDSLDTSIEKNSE

Adenosine receptor A1 = target: T2, Adenosine receptor A1 (Homo sapiens, UniProt P30542)
T2 sequence (P30542 whole entry): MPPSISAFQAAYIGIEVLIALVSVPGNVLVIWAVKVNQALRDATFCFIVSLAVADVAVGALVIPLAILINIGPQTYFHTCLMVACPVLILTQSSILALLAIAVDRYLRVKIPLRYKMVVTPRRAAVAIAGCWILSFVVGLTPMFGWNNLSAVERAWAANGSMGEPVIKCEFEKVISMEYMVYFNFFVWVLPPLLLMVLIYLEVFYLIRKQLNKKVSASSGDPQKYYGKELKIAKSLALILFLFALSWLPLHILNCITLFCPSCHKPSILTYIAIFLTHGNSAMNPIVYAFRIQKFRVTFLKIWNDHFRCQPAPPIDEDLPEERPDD

[1] = target: T3, Alpha-1A adrenergic receptor (Homo sapiens, UniProt P35348); format: functional, cell-based
T3 sequence (P35348 whole entry): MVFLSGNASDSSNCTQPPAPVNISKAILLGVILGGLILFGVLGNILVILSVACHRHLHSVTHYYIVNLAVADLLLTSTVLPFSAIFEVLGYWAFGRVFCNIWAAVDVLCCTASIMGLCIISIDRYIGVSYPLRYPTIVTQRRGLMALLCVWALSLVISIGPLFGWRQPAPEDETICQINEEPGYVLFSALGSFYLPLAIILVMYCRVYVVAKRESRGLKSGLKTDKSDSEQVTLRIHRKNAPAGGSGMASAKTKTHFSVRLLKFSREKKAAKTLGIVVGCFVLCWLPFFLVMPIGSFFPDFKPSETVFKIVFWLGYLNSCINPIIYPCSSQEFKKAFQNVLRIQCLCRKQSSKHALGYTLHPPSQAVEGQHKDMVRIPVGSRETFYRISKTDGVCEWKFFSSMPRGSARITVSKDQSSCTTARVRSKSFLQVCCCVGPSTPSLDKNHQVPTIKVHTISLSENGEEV

[2] = target: T4, Alpha-2A adrenergic receptor (Homo sapiens, UniProt P08913); format: functional, cell-based
T4 sequence (P08913 whole entry): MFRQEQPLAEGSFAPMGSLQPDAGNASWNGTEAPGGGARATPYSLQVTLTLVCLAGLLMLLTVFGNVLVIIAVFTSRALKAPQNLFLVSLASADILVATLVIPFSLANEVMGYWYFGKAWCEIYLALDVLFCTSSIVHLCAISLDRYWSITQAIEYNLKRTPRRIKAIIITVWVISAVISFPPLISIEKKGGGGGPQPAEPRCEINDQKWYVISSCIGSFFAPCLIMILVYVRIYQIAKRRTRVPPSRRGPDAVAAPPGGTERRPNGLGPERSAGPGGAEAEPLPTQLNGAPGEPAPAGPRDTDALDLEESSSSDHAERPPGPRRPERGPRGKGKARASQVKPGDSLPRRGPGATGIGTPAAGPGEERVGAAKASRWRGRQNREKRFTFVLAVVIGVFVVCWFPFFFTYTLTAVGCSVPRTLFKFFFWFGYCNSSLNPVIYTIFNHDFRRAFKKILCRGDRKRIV

[3] = target: Beta-1 adrenergic receptor (Homo sapiens, UniProt P08588); format: functional
[4] = target: T5, Type-1 angiotensin II receptor (Homo sapiens, UniProt P30556)
T5 sequence (P30556 whole entry): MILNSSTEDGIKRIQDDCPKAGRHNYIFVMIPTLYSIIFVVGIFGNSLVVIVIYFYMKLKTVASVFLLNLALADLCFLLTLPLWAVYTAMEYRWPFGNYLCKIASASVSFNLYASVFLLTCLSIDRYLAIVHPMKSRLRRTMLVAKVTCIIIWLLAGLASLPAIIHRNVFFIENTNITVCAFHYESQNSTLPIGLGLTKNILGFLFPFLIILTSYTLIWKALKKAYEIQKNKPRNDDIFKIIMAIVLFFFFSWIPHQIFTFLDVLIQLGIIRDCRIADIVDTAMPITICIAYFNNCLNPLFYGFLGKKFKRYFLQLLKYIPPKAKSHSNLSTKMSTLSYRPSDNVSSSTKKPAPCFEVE

[5] = target: T6, Muscarinic acetylcholine receptor M2 (Homo sapiens, UniProt P08172); format: functional, cell-based
T6 sequence (P08172 whole entry): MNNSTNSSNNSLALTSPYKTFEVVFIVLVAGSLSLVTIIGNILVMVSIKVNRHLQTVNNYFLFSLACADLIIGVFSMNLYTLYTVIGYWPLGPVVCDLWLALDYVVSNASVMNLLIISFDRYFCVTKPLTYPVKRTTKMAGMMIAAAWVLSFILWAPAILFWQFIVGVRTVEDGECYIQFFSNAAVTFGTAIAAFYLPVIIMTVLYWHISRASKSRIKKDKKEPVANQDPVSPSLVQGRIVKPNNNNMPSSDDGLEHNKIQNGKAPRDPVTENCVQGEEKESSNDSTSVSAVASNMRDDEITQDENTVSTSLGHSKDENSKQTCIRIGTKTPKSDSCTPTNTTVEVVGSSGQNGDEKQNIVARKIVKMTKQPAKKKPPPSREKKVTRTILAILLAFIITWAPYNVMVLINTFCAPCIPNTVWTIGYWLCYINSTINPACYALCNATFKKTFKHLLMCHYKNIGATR

[6] = target: T6, Muscarinic acetylcholine receptor M2; format: functional, cell-based; remark: listed apart in the source
[7] = target: Neuronal acetylcholine receptor subunit alpha-4 (Homo sapiens, UniProt P43681)
D(1A) dopamine receptor = D(1A) dopamine receptor (Homo sapiens, UniProt P21728); format: functional, cell-based
[8] = target: 5-hydroxytryptamine receptor 2A (Homo sapiens, UniProt P28223); format: functional, cell-based
[9] = target: Kappa-type opioid receptor (Homo sapiens, UniProt P41145)
Further: assay procedure not described here.

Sequence of 5-hydroxytryptamine receptor 2A (P28223 whole entry): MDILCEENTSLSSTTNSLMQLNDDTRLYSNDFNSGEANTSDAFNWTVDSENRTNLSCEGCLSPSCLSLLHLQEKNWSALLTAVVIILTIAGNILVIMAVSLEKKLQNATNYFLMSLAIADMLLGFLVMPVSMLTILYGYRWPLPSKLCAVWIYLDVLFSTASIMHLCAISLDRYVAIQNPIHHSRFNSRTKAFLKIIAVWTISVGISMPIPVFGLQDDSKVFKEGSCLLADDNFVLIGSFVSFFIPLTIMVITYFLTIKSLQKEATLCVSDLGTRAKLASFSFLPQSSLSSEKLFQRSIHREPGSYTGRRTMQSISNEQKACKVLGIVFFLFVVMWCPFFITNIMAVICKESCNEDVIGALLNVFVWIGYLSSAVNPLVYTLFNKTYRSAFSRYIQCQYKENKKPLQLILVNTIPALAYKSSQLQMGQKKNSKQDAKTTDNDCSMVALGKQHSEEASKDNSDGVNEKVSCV
Sequence of Kappa-type opioid receptor (P41145 whole entry): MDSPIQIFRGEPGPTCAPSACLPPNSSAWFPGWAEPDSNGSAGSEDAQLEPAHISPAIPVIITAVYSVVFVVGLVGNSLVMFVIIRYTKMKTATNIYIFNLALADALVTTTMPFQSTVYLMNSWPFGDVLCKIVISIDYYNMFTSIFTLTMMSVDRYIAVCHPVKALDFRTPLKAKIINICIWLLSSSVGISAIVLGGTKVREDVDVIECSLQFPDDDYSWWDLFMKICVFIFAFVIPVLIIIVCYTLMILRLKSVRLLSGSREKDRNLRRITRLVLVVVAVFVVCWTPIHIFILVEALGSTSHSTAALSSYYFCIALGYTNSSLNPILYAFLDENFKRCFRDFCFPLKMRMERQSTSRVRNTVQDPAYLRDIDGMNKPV
Sequence of Beta-1 adrenergic receptor (P08588 whole entry): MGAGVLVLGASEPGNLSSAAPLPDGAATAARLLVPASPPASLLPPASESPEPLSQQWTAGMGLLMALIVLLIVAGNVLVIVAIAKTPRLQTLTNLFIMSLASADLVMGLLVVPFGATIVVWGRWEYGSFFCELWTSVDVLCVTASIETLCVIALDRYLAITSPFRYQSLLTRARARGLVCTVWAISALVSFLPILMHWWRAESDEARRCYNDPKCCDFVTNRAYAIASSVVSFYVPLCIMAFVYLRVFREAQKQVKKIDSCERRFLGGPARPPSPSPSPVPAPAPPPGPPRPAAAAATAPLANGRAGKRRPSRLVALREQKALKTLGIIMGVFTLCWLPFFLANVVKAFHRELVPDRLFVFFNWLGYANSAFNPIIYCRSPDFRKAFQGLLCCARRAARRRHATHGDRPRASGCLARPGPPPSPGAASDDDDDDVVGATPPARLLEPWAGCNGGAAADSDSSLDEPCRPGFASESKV
Sequence of D(1A) dopamine receptor (P21728 whole entry): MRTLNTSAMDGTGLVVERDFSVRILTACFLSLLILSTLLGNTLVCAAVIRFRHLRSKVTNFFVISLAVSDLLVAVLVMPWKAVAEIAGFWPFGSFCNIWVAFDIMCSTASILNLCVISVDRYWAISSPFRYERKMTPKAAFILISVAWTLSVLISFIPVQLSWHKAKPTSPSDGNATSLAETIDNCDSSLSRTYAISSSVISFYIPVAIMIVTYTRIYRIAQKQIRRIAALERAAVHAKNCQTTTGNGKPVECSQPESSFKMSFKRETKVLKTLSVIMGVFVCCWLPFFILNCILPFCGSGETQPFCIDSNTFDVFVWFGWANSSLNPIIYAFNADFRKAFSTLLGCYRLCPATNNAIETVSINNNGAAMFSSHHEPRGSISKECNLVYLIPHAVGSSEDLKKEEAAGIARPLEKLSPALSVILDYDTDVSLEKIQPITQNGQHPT
Sequence of Neuronal acetylcholine receptor subunit alpha-4 (P43681 whole entry): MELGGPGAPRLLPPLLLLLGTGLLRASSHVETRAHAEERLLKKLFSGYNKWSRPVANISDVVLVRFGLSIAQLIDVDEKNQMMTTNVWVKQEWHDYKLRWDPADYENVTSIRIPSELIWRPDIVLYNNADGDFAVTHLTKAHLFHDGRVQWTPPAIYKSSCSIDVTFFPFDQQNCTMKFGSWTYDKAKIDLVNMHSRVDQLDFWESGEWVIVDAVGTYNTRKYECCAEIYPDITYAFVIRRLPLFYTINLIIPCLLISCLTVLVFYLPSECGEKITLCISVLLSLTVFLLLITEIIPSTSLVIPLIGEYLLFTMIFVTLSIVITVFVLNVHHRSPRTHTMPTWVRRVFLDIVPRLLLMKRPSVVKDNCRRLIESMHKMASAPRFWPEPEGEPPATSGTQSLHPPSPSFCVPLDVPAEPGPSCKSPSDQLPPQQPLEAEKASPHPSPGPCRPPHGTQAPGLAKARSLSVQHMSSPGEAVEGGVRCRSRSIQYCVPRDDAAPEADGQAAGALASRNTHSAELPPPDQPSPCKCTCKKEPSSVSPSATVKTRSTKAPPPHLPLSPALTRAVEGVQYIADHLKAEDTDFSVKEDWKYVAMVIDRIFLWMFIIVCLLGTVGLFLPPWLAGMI

| AC50 (Adenosine receptor A3) [µM] | AC50 (Adenosine receptor A1) [µM] | AC50 [2] [µM] | AC50 [3] [µM] | AC50 [4] [µM] | AC50 [5] [µM] | AC50 [6] [µM] | AC50 [7] [µM] | AC50 (D(1A) dopamine receptor) [µM] | AC50 [8] [µM] | AC50 [9] [µM] | SMILES | AC50 [1] [µM] |
| --- | --- | --- | --- | --- | --- | --- | --- | --- | --- | --- | --- | --- |
| > 30 | > 30 | > 30 | > 30 | > 30 | > 30 | > 30 | > 30 | > 30 | > 30 | > 30 | CC(C)(Oc1ccc(Cl)cc1)C(=O)OCCOC(=O)c1cccnc1 [ETOFIBRATE] | > 30 |
| > 10 | > 10 | > 10 | > 10 | > 10 | > 10 | > 10 | > 10 | > 10 | > 30 | > 10 | CN(C)[C@@H]1C(O)=C(C(=O)NCN2CCCC2)C(=O)[C@@]2(O)C(O)=C3C(=O)c4c(O)cccc4[C@@](C)(O)[C@H]3C[C@@H]12 [ROLITETRACYCLINE] | > 30 |
| > 10 | > 10 | > 10 | > 10 | > 10 | > 10 | 1.1 | > 10 | > 10 | > 10 | 1.7 | CCC(=O)c1ccc2c(c1)N(CC(C)N(C)C)c1ccccc1S2 (stereo not drawn) [PROPIOMAZINE] | – |
| 7.7 | 5.9 | > 30 | > 10 | 9.3 | > 30 | > 30 | 9.2 | > 30 | > 30 | > 30 | COc1ccc(-c2cc(=S)ss2)cc1 [ANETHOLTRITHION] | > 30 |
| > 10 | > 10 | > 10 | > 10 | > 10 | > 10 | > 10 | > 10 | > 10 | > 10 | 7.1 | CN(C)CCC(O)(c1ccccc1)c1ccccc1Cl (stereo not drawn) [CHLOPHEDIANOL] | – |
| > 30 | > 30 | > 10 | > 10 | > 30 | > 10 | > 10 | > 10 | > 10 | – | > 10 | C[C@]12C=CC(=O)C=C1CC[C@@H]1[C@@H]2[C@@H](O)C[C@@]2(C)[C@H]1CC[C@]2(O)C(=O)CO [PREDNISOLONE] | > 30 |
| > 30 | > 30 | – | > 30 | > 30 | 13 | > 10 | > 30 | > 30 | > 30 | > 30 | C[C@]12CCC(=O)C=C1[C@@H]1C[C@@H]1[C@H]1[C@@H]3[C@@H]4C[C@@H]4[C@@]4(CCC(=O)O4)[C@@]3(C)CC[C@@H]12 [DROSPIRENONE] | > 30 |
| > 30 | > 30 | > 30 | > 30 | > 30 | > 30 | > 30 | > 30 | > 30 | – | > 30 | CC1(C)O[C@@H]2C[C@H]3[C@@H]4CCC5=CC(=O)C=C[C@]5(C)[C@@]4(F)[C@@H](O)C[C@]3(C)[C@]2(C(=O)CO)O1 [TRIAMCINOLONE ACETONIDE] | – |

| SMILES | AC50 (Adenosine receptor A3) [µM] | AC50 (Adenosine receptor A1) [µM] | AC50 [2] [µM] | AC50 [3] [µM] | AC50 [4] [µM] | AC50 [5] [µM] | AC50 [6] [µM] | AC50 [7] [µM] | AC50 (D(1A) dopamine receptor) [µM] | AC50 [8] [µM] | AC50 [9] [µM] | AC50 [1] [µM] |
| --- | --- | --- | --- | --- | --- | --- | --- | --- | --- | --- | --- | --- |
| CNC(=O)c1cnn(-c2nc(N)c3ncn([C@@H]4O[C@H](CO)[C@@H](O)[C@H]4O)c3n2)c1 [REGADENOSON ANHYDROUS] | 3.7 | – | – | – | – | – | – | – | – | – | – | – |
| COc1ccc(C(=O)c2ccccc2)c(O)c1 [OXYBENZONE] | – | – | > 30 | – | – | > 30 | > 30 | – | > 30 | > 30 | > 30 | > 30 |
| CCn1c(=O)c2c(nc(/C=C/c3ccc(OC)c(OC)c3)n2C)n(CC)c1=O [ISTRADEFYLLINE] | 24 | 23 | – | – | – | > 30 | > 30 | > 30 | – | > 30 | – | > 30 |
| Cc1cn(-c2cc(NC(=O)c3ccc(C)c(Nc4nccc(-c5cnccn5)n4)c3)cc(C(F)(F)F)c2)cn1 [RADOTINIB] | 3.3 | – | – | > 30 | – | > 30 | > 30 | 27 | – | > 30 | – | > 30 |
| Cc1ccc(O)c([C@H](CCN(C(C)C)C(C)C)c2ccccc2)c1 [TOLTERODINE] | – | – | > 10 | > 10 | – | – | – | > 10 | > 10 | – | 6.71 | > 30 |
| N=C(N)NC(=O)c1nc(Cl)c(N)nc1N [AMILORIDE] | > 30 | > 30 | > 30 | > 30 | > 30 | > 30 | > 30 | > 30 | > 30 | – | > 30 | > 30 |
| CC(C)(C)NCC(O)COc1ccccc1C#N (stereo not drawn) [BUNITROLOL] | – | – | > 30 | – | – | > 30 | > 30 | – | > 30 | > 30 | > 30 | > 30 |
| Oc1cc(Cl)ccc1Oc1ccc(Cl)cc1Cl [TRICLOSAN] | 8.9 | > 30 | > 30 | > 30 | 24 | – | > 30 | > 30 | > 30 | > 30 | > 30 | > 30 |
| COc1cccc2c1C(=O)c1c(O)c3c(c(O)c1C2=O)C[C@@](O)(C(=O)CO)C[C@@H]3O[C@H]1C[C@H](N)[C@H](O)[C@H](C)O1 [DOXORUBICIN] | > 30 | > 30 | > 10 | > 30 | > 30 | > 10 | > 10 | > 30 | > 30 | – | > 10 | 16 |

From ChEMBL document CHEMBL5291721, “A preclinical secondary pharmacology resource illuminates target-adverse drug reaction associations of marketed drugs” (Nat Commun, 2023)
